Reference: PubChem BioAssay (NCI)
Where “and” joins values, the source holds several entries; their conditions need not be identical. Identical values can stand only once.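 The compound was tested at five concentrations on cells cultured in 96-well plates, with a 48-hour exposure period. GI50 is the concentration that inhibits growth by half. At the TGI there is no net growth.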

How the values were obtained:
Assay in all cases: NCI tumour cell line growth inhibition, 48 h
HL-60(TB) leukemia = system: HL-60(TB) leukemia
PC-3 prostate = system: PC-3 prostate
NCI-H226 lung = system: NCI-H226 lung
HOP-62 NSCLC = system: HOP-62 NSCLC
U251 CNS = system: U251 CNS
SNB-19 CNS = system: SNB-19 CNS
SK-MEL-5 melanoma = system: SK-MEL-5 melanoma
KM12 colon = system: KM12 colon
SK-MEL-2 melanoma = system: SK-MEL-2 melanoma
HCT-116 colon = system: HCT-116 colon

SMILES | GI50 (HL-60(TB) leukemia) | TGI (HL-60(TB) leukemia) | GI50 (PC-3 prostate) [µM] | TGI (PC-3 prostate) | GI50 (NCI-H226 lung) | TGI (NCI-H226 lung) | GI50 (HOP-62 NSCLC) | TGI (HOP-62 NSCLC) | GI50 (U251 CNS) | TGI (U251 CNS) | GI50 (SNB-19 CNS) | TGI (SNB-19 CNS) | GI50 (SK-MEL-5 melanoma) | TGI (SK-MEL-5 melanoma) | GI50 (KM12 colon) | TGI (KM12 colon) | GI50 (SK-MEL-2 melanoma) | TGI (SK-MEL-2 melanoma) | GI50 (HCT-116 colon) | TGI (HCT-116 colon)
O=[N+]([O-])c1ccccc1/C=N\NC(=S)N/N=C/c1ccccc1[N+](=O)[O-] | 3.59 µM | > 100 µM | 10 | > 100 µM | 75.4 µM | > 100 µM | 5.57 µM | > 100 µM | 4.9 µM | > 100 µM | 6.71 µM | > 100 µM | 4.21 µM | > 100 µM | 2.55 µM | > 100 µM | 6.41 µM | > 100 µM | 3.78 µM | > 100 µM
COc1cc(/C=C/C(=O)c2c(C)n([O-])c3ccccc3[n+]2=O)cc(OC)c1OC | 5.24 µM | > 100 µM | 4.45 | 19.3 µM | 15.2 µM | 34 µM | 12.4 µM | 24.9 µM | 5.14 µM | 17.2 µM | 10.5 µM | 23.3 µM | 3.62 µM | 13.4 µM | 10.7 µM | 24.7 µM | 4.63 µM | 17.2 µM | 2.56 µM | 13.8 µM
NC(CSC(c1ccccc1)(c1ccccc1)c1ccccc1)C(=O)O (stereo not given) | 2.54 µM and 2.11 µM | 5.93 µM and 1.53 µM and 8.62 µM | 2.43 | 12.1 µM and > 100 µM | 22.1 µM | 90.1 µM and > 100 µM | 19.3 µM and 4.5 µM | 63 µM and > 100 µM | 1.11 µM and 0.485 µM | 16.9 µM and 32.4 µM and 43.4 µM | 2.26 µM and 5.8 µM | 63.9 µM and > 100 µM | 0.601 µM and 0.41 µM | 51.1 µM and 42.5 µM | 5.15 µM and 2.35 µM | 96.3 µM and 24 µM | 1.51 µM and 0.886 µM | 5.34 µM and 9.72 µM and 5.63 µM | 0.512 µM and 0.425 µM | 55.3 µM and 64.2 µM and > 100 µM
NCC(=O)Nc1ccc(Cl)cc1C(=O)c1ccc[nH]1 | – | > 100 µM | – | > 100 µM | – | > 100 µM | – | > 100 µM | – | > 100 µM | – | > 100 µM | – | > 100 µM | – | > 100 µM | – | > 100 µM | – | > 100 µM
O=C(O)/C=C/c1c2ccc(=O)c(O)c-2oc2c(O)c(O)ccc12 | – | > 100 µM | – | > 100 µM | – | > 100 µM | – | 61.1 µM | – | 35.3 µM | – | > 100 µM | – | > 100 µM | – | > 100 µM | – | > 100 µM | – | 40 µM
CCc1nc(N)nc(N)c1C#CC(C)c1ccc(-c2ccncc2)cc1Cl (stereo not given) | 0.0226 µM and 0.0298 µM | 1.75 µM and 2.61 µM | < 0.005 | 4.85 µM and 12.5 µM | 0.264 µM and 0.86 µM | 6.56 µM and 28.3 µM | 0.0266 µM and 0.0528 µM | 1.92 µM and 13.9 µM | 0.0108 µM and 0.028 µM | 5.1 µM and 11.6 µM | 0.0394 µM and 0.0796 µM | 6.69 µM and 15.2 µM | 0.00753 µM and 0.0461 µM | 0.781 µM and 1.98 µM | 0.0271 µM and 0.0678 µM | 5.73 µM and 14.5 µM | 0.579 µM and 1.75 µM | 3.33 µM and 17.6 µM | < 0.005 µM | 2.77 µM and 13 µM
COc1ccc2nc3cc(Cl)ccc3c(Nc3ccccc3-c3ccccc3Nc3c4ccc(Cl)cc4nc4ccc(OC)cc34)c2c1 | – | 16.8 µM | – | 63 µM | – | > 73.4 µM | – | > 94.9 µM | – | > 93.5 µM | – | > 100 µM | – | 30.7 µM | – | > 100 µM | – | > 73.7 µM | – | > 100 µM
CCN(Cc1cc(Cl)cc(C)c1O)Cc1c(O)ccc2ccccc12 | – | 34 µM | – | 29.9 µM | – | 41 µM | – | 26.4 µM | – | 31.7 µM | – | 40.9 µM | – | 29.4 µM | – | 33 µM | – | 32.7 µM | – | 33.1 µM
O=NNc1ccc(-c2ccccc2)cn1 | – | 51.9 µM | – | 61.2 µM | – | > 64.6 µM | – | 20.6 µM | – | > 62.5 µM | – | > 69 µM | – | 31.7 µM | – | > 82.1 µM | – | 52 µM | – | 29.9 µM
O=CNC(Cc1cnc[nH]1)C(=O)O (stereo not given) | – | > 100 µM | – | > 100 µM | – | > 100 µM | – | > 100 µM | – | > 100 µM | – | > 100 µM | – | > 100 µM | – | > 100 µM | – | > 100 µM | – | > 100 µM
CC(C)(C)OC(=O)N(CCCCN(CCCn1c2c(c3ccccc3c1=O)C(=O)c1ccccc1-2)C(=O)OC(C)(C)C)CCCn1c2c(c3ccccc3c1=O)C(=O)c1ccccc1-2 | > 100 µM | > 100 µM | 27.7 | > 100 µM | 99.2 µM | > 100 µM | 11 µM | 73.8 µM | 27.2 µM | > 100 µM | 72 µM | > 100 µM | 48.5 µM | > 100 µM | 79.6 µM | > 100 µM | 65.1 µM | > 100 µM | 1.9 µM | > 100 µM
